Holding throughout (format): cell-based, human
The test system of series [1] is BCL-2/PROTAC/VCB ternary complex (HiBit-BCL-2, HaloTag-VHL). The series can be described thus: NanoBRET intracellular ternary complex formation in 293T cells, BCL-2. The following applies: for nanoBRET ratio (610/450, background-subtracted), Ave, Bcl-2: Ave of Read2 and Read3; for nanoBRET ratio (610/450, background-subtracted), Ave, Bcl-2 / nanoBRET ratio (610/450, background-subtracted), Read2, Bcl-2 / nanoBRET ratio (610/450, background-subtracted), Read3, Bcl-2: triplicate wells. The gist of the method: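 293T cells were transfected with HiBit-BCL-xL or HiBit-BCL-2 plus HaloTag-VHL and incubated overnight with or without HaloTag NanoBRET 618 ligand in 4% FBS Opti-MEM. Serially diluted compounds were applied for 6 h at 37 °C. mBRET ratio from donor emission (450/50 nm) and acceptor emission (610 nm longpass) after Nano-Glo substrate.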
(BRET reads energy transfer from a luciferase to a nearby fluorophore.)

The test system of another series is Flag-BCL-2 WT or mutants. The series can be described thus: Polyubiquitination assay (Flag IP, HA-Ub blot), BCL-2. The following applies: 293T cells, MG132 10 µM pretreatment, 753b 1 uM, 5 h. The text has this:
K16-only, K20-only, and K87-only represent that all the surface lysines on BCL-xL are mutated to arginines except K16, K20, and K87, respectively. Representative immunoblots of Flag-BCL-xL WT and mutants are shown in the top panel. […] K17R and K22R represents that K17 and K22 on BCL-2 are respectively mutated to arginine; K17/22R means both K17 and K22 on BCL-2 are mutated to arginine. Representative immunoblots of Flag-BCL-2 WT and mutants are shown in the top panel. The quantification of the relative Flag-BCL-xL or Flag-BCL-2 protein content in the immunoblots is presented as mean values ± s.e.m. (n = 3 biologically independent experiments) in the bottom panel. […] After 36 h, cells were pre-treated with MG132 (10 µM) for 2 h and then treated with or without 753b (0.1 µM for BCL-xL and 1 uM for BCL-2) for 5 h. The Flag-tagged proteins were immunoprecipitated (IP) and immunoblotted with HA or Flag antibody. The input results are shown in Supplementary Fig. 9. Data are a representative of two independent experiments. Source data are provided as a Source data file.
Proteins were extracted by using IP lysis buffer (Cat. No. 87788, Thermal Fisher Scientific) and IP was performed using Anti-FLAG M2 Magnetic Beads (Cat. No. M8823, Sigma-Aldrich) according to the manufacturer’s protocol. […]

Series [2] is described as follows: Viability (MTS) of Hela cells. The following applies: human, Hela cells; for viability at 72 h, 0.00137174 uM: MTS absorbance 490, Conc 0.00137174 uM; for viability at 72 h, 0.00411523 uM: MTS absorbance 490, Conc 0.00411523 uM; for viability at 72 h, 0.037037 uM: MTS absorbance 490, Conc 0.037037 uM; for viability at 72 h, 0.111111 uM: MTS absorbance 490, Conc 0.111111 uM; for viability at 72 h, 0.333333 uM: MTS absorbance 490, Conc 0.333333 uM; for viability at 72 h, 1 uM: MTS absorbance 490, Conc 1 uM; for viability at 72 h, 3 uM: MTS absorbance 490, Conc 3 uM. The protocol:
Suspension cells were treated 30 min after seeding, whereas adherent cells were allowed to adhere overnight and were then treated. Compound treatments were prepared in complete cell culture medium and 100 µl of 2× treatment-containing medium were added to each well. Complete cell culture medium without treatment was added in control wells, and wells containing medium without cells served as background. The outer wells of the 96-well plate were not used for treatment and were filled with 250 µl of PBS to reduce evaporation of medium from inner wells. Each compound and/or combination was tested at nine different concentrations with three replicates. The cell viability was measured after 72 h by tetrazolium-based MTS assay. MTS reagent (2 mg ml^–1 stock; cat. no. G1111, Promega) was freshly supplemented with phenazine methosulfate (PMS, 0.92 mg ml^–1 stock, cat. no. P9625, Sigma-Aldrich) in 20:1 ratio, and 20 µl of this mixture was added to each control and treatment well. The cells were incubated for 4 h at 37 °C and 5% CO2, and then the absorbance was recorded at 490 nm using Biotek’s Synergy Neo2 multimode plate reader (Biotek). The average absorbance value of background wells was subtracted from absorbance value of each control and treatment well, and percent cell viability ((At/A0) × 100)) was determined in each treatment well, where At is the absorbance value of the treatment well and A0 is the average absorbance value of control wells after background subtraction. The data were expressed as average percentage cell viability and fitted in non-linear regression curves using GraphPad Prism 7 (GraphPad Software, La Jolla, CA, USA).

Setting [3] is: read-out: cell viability normalised to control wells (mean of three replicates).
[4] abbreviates: read-out: cell viability normalised to control wells (single replicate).

In general, viability refers to a read-out of living cells in per cent, often relative to untreated cells.

“And” between values parts separate entries of the source, which are not always exact repeats. Equal values may be shown once. Read-outs that look alike come from different tables or passages of the source.

For `Cc1ncsc1-c1ccc([C@H](C)NC(=O)[C@@H]2C[C@@H](O)CN2C(=O)[C@@H](NC(=O)CCCCCCC(=O)N2CCN(C[C@@]3(C)CCC(c4ccc(Cl)cc4)=C(CN4CCN(c5ccc(C(=O)NS(=O)(=O)c6ccc(N[C@H](CCN7CCOCC7)CSc7ccccc7)c(S(=O)(=O)C(F)(F)F)c6)cc5)CC4)C3)CC2)C(C)(C)C)cc1` [753a], the “nanoBRET ratio (610/450, background-subtracted), Ave, Bcl-2” value is 3.986 and 4.005 and 4.171 in series [1] (0.004 uM); 3.935 and 4.221 and 4.234 in series [1] (0.012 uM); 5.182 and 5.692 and 5.227 in series [1] (0.111 uM); 5.936 and 5.165 and 5.723 in series [1] (0.333 uM); 4.911 and 5.007 and 4.802 in series [1] (1 uM); 5.075 and 4.7947 and 5.072 in series [1] (3 uM). Further, the “nanoBRET ratio (610/450, background-subtracted), Read2, Bcl-2” value is 4.213 and 3.959 and 4.208 in series [1] (0.004 uM); 4.374 and 4.4563 and 4.486 in series [1] (0.012 uM); 5.4197 and 6.174 and 5.638 in series [1] (0.111 uM); 6.144 and 5.244 and 5.817 in series [1] (0.333 uM); 5.2892 and 5.222 and 5.13 in series [1] (1 uM); 5.352 and 5.171 and 5.538 in series [1] (3 uM). The “nanoBRET ratio (610/450, background-subtracted), Read3, Bcl-2” value in series [1] (0.004 uM) was 3.759 and 4.052 and 4.1349; in series [1] (0.012 uM), 3.4969 and 3.9866 and 3.982; in series [1] (0.111 uM), 4.944 and 5.21 and 4.816; in series [1] (0.333 uM) it was 5.728 and 5.085 and 5.6284; in series [1] (1 uM), 4.533 and 4.7919 and 4.4737; in series [1] (3 uM) it was 4.798 and 4.419 and 4.6068.

For `Cc1ncsc1-c1ccc([C@H](C)NC(=O)[C@@H]2C[C@@H](O)CN2C(=O)[C@@H](NC(=O)CCCCCCC(=O)N2CCN(C[C@]3(C)CCC(c4ccc(Cl)cc4)=C(CN4CCN(c5ccc(C(=O)NS(=O)(=O)c6ccc(N[C@H](CCN7CCOCC7)CSc7ccccc7)c(S(=O)(=O)C(F)(F)F)c6)cc5)CC4)C3)CC2)C(C)(C)C)cc1` [753b], the “nanoBRET ratio (610/450, background-subtracted), Ave, Bcl-2” value in series [1] (0.004 uM) was 4.377 and 3.959 and 4.565; in series [1] (0.012 uM) it was 5.266 and 5.391 and 5.383; in series [1] (0.111 uM), 8.153 and 8.77 and 8.375; in series [1] (0.333 uM), 10.2466 and 9.352 and 9.108; in series [1] (1 uM) it was 9.221 and 9.808 and 9.597; in series [1] (3 uM), 10.0388 and 9.727 and 10.2545. In addition, the “nanoBRET ratio (610/450, background-subtracted), Read2, Bcl-2” value in series [1] (0.004 uM) was 4.539 and 4.475 and 4.818; in series [1] (0.012 uM), 5.627 and 5.5043 and 5.572; in series [1] (0.111 uM), 8.4844 and 9.173 and 8.444; in series [1] (0.333 uM), 10.4847 and 9.4698 and 9.325; in series [1] (1 uM) it was 8.91 and 9.99 and 9.879; in series [1] (3 uM), 10.3731 and 9.71 and 10.9724. Also, the “nanoBRET ratio (610/450, background-subtracted), Read3, Bcl-2” value was 4.215 and 3.442 and 4.311 in series [1] (0.004 uM); 4.906 and 5.278 and 5.194 in series [1] (0.012 uM); 7.821 and 8.367 and 8.306 in series [1] (0.111 uM); 10.0085 and 9.234 and 8.89 in series [1] (0.333 uM); 9.531 and 9.627 and 9.314 in series [1] (1 uM); 9.704 and 9.745 and 9.537 in series [1] (3 uM). Further, the “intracellular ternary complex formation with BCL-2 (in words)” value in series [1] (NanoBRET, 293T cells, 6 h) is “much higher activity to induce the ternary complex formation with both BCL-xL and BCL-2 relative to 753a”. In addition, the “polyubiquitination of BCL-2 WT and mutants (in words)” value in the series with Flag-BCL-2 WT or mutants was “induces polyubiquitination of WT and K22R BCL-2, but not K17R and K17/22R BCL-2”.

Regarding `CC1(C)CCC(c2ccc(Cl)cc2)=C(CN2CCN(c3ccc(C(=O)NS(=O)(=O)c4ccc(N[C@H](CCN5CCOCC5)CSc5ccccc5)c(S(=O)(=O)C(F)(F)F)c4)cc3)CC2)C1` [ABT263, navitoclax], in series [2] (setting [3]), the viability at 72 h, 0.00137174 uM is 108%; the viability at 72 h, 0.00411523 uM turned out to be 99.8%; the viability at 72 h, 0.037037 uM came out at 97%; the viability at 72 h, 0.111111 uM is 89.9%. In addition, in series [2] (setting [3]), the viability at 72 h, 0.333333 uM came to 80.4%; the viability at 72 h, 1 uM turned out to be 81%; the viability at 72 h, 3 uM is 80.1%. In addition, in series [2] (setting [4]), the viability at 72 h, 0.00137174 uM is 115%; the viability at 72 h, 0.00411523 uM was 106%; the viability at 72 h, 0.037037 uM was determined as 103%; the viability at 72 h, 0.333333 uM worked out at 80.9%. For the same compound, in series [2] (setting [4]), the viability at 72 h, 1 uM worked out at 76.8% and the viability at 72 h, 3 uM worked out at 83.1%.

With `Cc1ncsc1-c1ccc([C@H](C)NC(=O)[C@@H]2C[C@@H](O)CN2C(=O)[C@@H](NC(=O)CCCCCC(=O)N2CCN(CC[C@H](CSc3ccccc3)Nc3ccc(S(=O)(=O)NC(=O)c4ccc(N5CCN(CC6=C(c7ccc(Cl)cc7)CCC(C)(C)C6)CC5)cc4)cc3S(=O)(=O)C(F)(F)F)CC2)C(C)(C)C)cc1` [DT2216], in series [2] (setting [3]), the viability at 72 h, 0.00137174 uM is 87.9%; the viability at 72 h, 0.00411523 uM worked out at 90.6%; the viability at 72 h, 0.037037 uM stood at 88.1%; the viability at 72 h, 0.111111 uM was 89.7%. In series [2] (setting [3]), the viability at 72 h, 0.333333 uM was 96.4%; the viability at 72 h, 1 uM came out at 82.9%; the viability at 72 h, 3 uM was 82.1%. In series [2] (setting [4]), the viability at 72 h, 0.00137174 uM came out at 92.3%; the viability at 72 h, 0.00411523 uM came to 96.4%; the viability at 72 h, 0.037037 uM worked out at 89.4%; the viability at 72 h, 0.111111 uM came out at 92.2%. Moreover, in series [2] (setting [4]), the viability at 72 h, 0.333333 uM stood at 102%; the viability at 72 h, 1 uM was found to be 80.4%; the viability at 72 h, 3 uM was 78.4%.

Source of the values: paper PMC8617031, “Development of a BCL-xL and BCL-2 dual degrader with improved anti-leukemic activity,” (Nature Communications, 2021).
